ChEMBL document CHEMBL1201862, “PubChem BioAssay data set” (2004)
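Exposure lasted 48 hours, with cells grown in 96-well plates and compounds tested at five concentrations. GI50 is the concentration that inhibits growth by half.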 Calls of active or inactive are those of the source. No stated cut-off is given here; in the data, active = GI50 up to about 1.1 µM and inactive = higher.

What was measured:
Assay in all cases: NCI tumour cell line growth inhibition, 48 h
HOP-62 = system: HOP-62
OVCAR-3 = system: OVCAR-3
SW-620 = system: SW-620
HT-29 = system: HT-29
UACC-257 = system: UACC-257
SN12C = system: SN12C
SF-539 = system: SF-539
LXFL 529 = system: LXFL 529
MOLT-4 = system: MOLT-4
NCI-H460 = system: NCI-H460
NCI-H522 = system: NCI-H522
UO-31 = system: UO-31
HCT-15 = system: HCT-15
HCC 2998 = system: HCC 2998
RXF 393 = system: RXF 393
A549 = system: A549
OVCAR-8 = system: OVCAR-8
COLO 205 = system: COLO 205
ACHN = system: ACHN
SK-MEL-28 = system: SK-MEL-28
OVCAR-4 = system: OVCAR-4
SR = system: SR
A498 = system: A498
Malme-3M = system: Malme-3M
SK-MEL-5 = system: SK-MEL-5
NCI-H226 = system: NCI-H226
RXF 631 = system: RXF 631
UACC-62 = system: UACC-62
HOP-92 = system: HOP-92
SNB-19 = system: SNB-19
DMS-273 = system: DMS-273
HOP-18 = system: HOP-18
M14 = system: M14
SNB-75 = system: SNB-75
DMS-114 = system: DMS-114
HCT-116 = system: HCT-116
DLD-1 = system: DLD-1
RPMI-8226 = system: RPMI-8226
SK-OV-3 = system: SK-OV-3
SK-MEL-2 = system: SK-MEL-2
SF-295 = system: SF-295
LOX IMVI = system: LOX IMVI
KM-20L2 = system: KM-20L2
EKVX = system: EKVX
SF-268 = system: SF-268
IGROV-1 = system: IGROV-1
CAKI-1 = system: CAKI-1
CCRF-CEM = system: CCRF-CEM
K562 = system: K562
SNB-78 = system: SNB-78
TK-10 = system: TK-10
NCI-H23 = system: NCI-H23
KM12 = system: KM12
786-0 = system: 786-0
U-251 = system: U-251
OVCAR-5 = system: OVCAR-5
HL-60 = system: HL-60
XF498 = system: XF498
M19-MEL = system: M19-MEL

CC(C)(C)OC(=O)N1N=NC2C3OC(CC3=O)C21 (stereo not drawn)
GI50 (HOP-62): > 100 µM (inactive)
GI50 (OVCAR-3): > 100 µM (inactive)
GI50 (SW-620): > 100 µM (inactive)
GI50 (HT-29): > 100 µM (inactive)
GI50 (UACC-257): > 100 µM (inactive)
GI50 (SN12C): > 100 µM (inactive)
GI50 (SF-539): > 100 µM (inactive)
GI50 (LXFL 529): > 100 µM (inactive)
GI50 (MOLT-4): > 100 µM (inactive)
GI50 (NCI-H460): > 100 µM (inactive)
GI50 (NCI-H522): > 100 µM (inactive)
GI50 (UO-31): > 100 µM (inactive)
GI50 (HCT-15): > 100 µM
GI50 (HCC 2998): > 100 µM (inactive)
GI50 (RXF 393): > 10 µM (inactive)
GI50 (A549): > 100 µM (inactive)
GI50 (OVCAR-8): > 100 µM (inactive)
GI50 (COLO 205): > 100 µM (inactive)
GI50 (ACHN): > 100 µM (inactive)
GI50 (SK-MEL-28): > 100 µM (inactive)
GI50 (OVCAR-4): > 10 µM (inactive)
GI50 (SR): 77.4 µM (inactive)
GI50 (A498): > 100 µM (inactive)
GI50 (Malme-3M): > 100 µM (inactive)
GI50 (SK-MEL-5): > 10 µM (inactive)
GI50 (NCI-H226): 2.8 µM (inactive)
GI50 (RXF 631): > 100 µM (inactive)
GI50 (UACC-62): > 100 µM (inactive)
GI50 (HOP-92): > 100 µM (inactive)
GI50 (SNB-19): > 100 µM (inactive)
GI50 (DMS-273): > 100 µM (inactive)
GI50 (HOP-18): > 100 µM (inactive)
GI50 (M14): > 100 µM (inactive)
GI50 (SNB-75): > 100 µM (inactive)
GI50 (DMS-114): > 100 µM (inactive)
GI50 (HCT-116): > 100 µM (inactive)
GI50 (DLD-1): > 100 µM (inactive)
GI50 (RPMI-8226): > 100 µM (inactive)
GI50 (SK-OV-3): 18.6 µM (inactive)
GI50 (SK-MEL-2): > 100 µM (inactive)
GI50 (SF-295): > 10 µM (inactive)
GI50 (LOX IMVI): > 100 µM (inactive)
GI50 (KM-20L2): > 100 µM (inactive)
GI50 (EKVX): > 100 µM (inactive)
GI50 (SF-268): > 100 µM (inactive)
GI50 (IGROV-1): > 100 µM (inactive)
GI50 (CAKI-1): > 100 µM (inactive)
GI50 (CCRF-CEM): 40.9 µM (inactive)
GI50 (K562): > 100 µM (inactive)
GI50 (SNB-78): > 100 µM (inactive)
GI50 (TK-10): > 100 µM (inactive)
GI50 (NCI-H23): > 100 µM (inactive)
GI50 (KM12): > 10 µM (inactive)
GI50 (786-0): > 100 µM (inactive)
GI50 (U-251): > 100 µM (inactive)
GI50 (OVCAR-5): > 100 µM (inactive)

Nc1c(-c2ccc(Br)cc2)[n+]([O-])c2ccccc2[n+]1[O-]
GI50 (HOP-62): > 100 µM (inactive)
GI50 (OVCAR-3): 92 µM (inactive)
GI50 (SW-620): > 100 µM (inactive)
GI50 (HT-29): > 100 µM (inactive)
GI50 (UACC-257): > 100 µM (inactive)
GI50 (SN12C): > 100 µM (inactive)
GI50 (SF-539): > 100 µM (inactive)
GI50 (LXFL 529): > 100 µM (inactive)
GI50 (MOLT-4): 39.2 µM (inactive)
GI50 (NCI-H460): > 100 µM (inactive)
GI50 (NCI-H522): 52.6 µM (inactive)
GI50 (UO-31): 38.6 µM (inactive)
GI50 (HCT-15): > 100 µM
GI50 (A549): 92 µM (inactive)
GI50 (OVCAR-8): > 100 µM (inactive)
GI50 (COLO 205): > 100 µM (inactive)
GI50 (ACHN): > 100 µM (inactive)
GI50 (SK-MEL-28): > 100 µM (inactive)
GI50 (OVCAR-4): > 100 µM (inactive)
GI50 (A498): > 100 µM (inactive)
GI50 (Malme-3M): > 100 µM (inactive)
GI50 (SK-MEL-5): > 100 µM (inactive)
GI50 (NCI-H226): > 100 µM (inactive)
GI50 (RXF 631): > 100 µM (inactive)
GI50 (HOP-92): > 100 µM (inactive)
GI50 (SNB-19): > 100 µM (inactive)
GI50 (DMS-273): > 100 µM (inactive)
GI50 (HOP-18): > 100 µM (inactive)
GI50 (M14): > 100 µM (inactive)
GI50 (SNB-75): 81.3 µM (inactive)
GI50 (DMS-114): 50.9 µM (inactive)
GI50 (HCT-116): > 100 µM (inactive)
GI50 (DLD-1): > 100 µM (inactive)
GI50 (RPMI-8226): 27.9 µM (inactive)
GI50 (SK-OV-3): > 100 µM (inactive)
GI50 (SK-MEL-2): > 100 µM (inactive)
GI50 (SF-295): > 100 µM (inactive)
GI50 (KM-20L2): > 100 µM (inactive)
GI50 (EKVX): > 100 µM (inactive)
GI50 (SF-268): > 100 µM (inactive)
GI50 (IGROV-1): > 100 µM (inactive)
GI50 (CAKI-1): > 100 µM (inactive)
GI50 (K562): 64.9 µM (inactive)
GI50 (HL-60): 82.4 µM (inactive)
GI50 (SNB-78): > 100 µM (inactive)
GI50 (NCI-H23): > 100 µM (inactive)
GI50 (KM12): > 100 µM (inactive)
GI50 (786-0): > 100 µM (inactive)
GI50 (U-251): 78.2 µM (inactive)
GI50 (OVCAR-5): > 100 µM (inactive)

NC1=C(NC(=O)Cc2ccc(F)cc2)C(=O)c2ccccc2C1=O
GI50 (HOP-62): > 52.4 µM (inactive)
GI50 (OVCAR-3): 26.4 µM (inactive)
GI50 (SW-620): > 100 µM (inactive)
GI50 (HT-29): > 100 µM (inactive)
GI50 (UACC-257): 79.3 µM (inactive)
GI50 (SN12C): > 100 µM (inactive)
GI50 (SF-539): > 78 µM (inactive)
GI50 (LXFL 529): > 100 µM (inactive)
GI50 (MOLT-4): > 67.9 µM (inactive)
GI50 (NCI-H460): > 82.2 µM (inactive)
GI50 (NCI-H522): 22.7 µM (inactive)
GI50 (XF498): > 78.7 µM (inactive)
GI50 (UO-31): 58.1 µM (inactive)
GI50 (HCT-15): > 100 µM
GI50 (HCC 2998): > 100 µM (inactive)
GI50 (RXF 393): 24.6 µM (inactive)
GI50 (A549): 85.3 µM (inactive)
GI50 (OVCAR-8): 33.1 µM (inactive)
GI50 (COLO 205): 68.2 µM (inactive)
GI50 (ACHN): 59 µM (inactive)
GI50 (SK-MEL-28): > 100 µM (inactive)
GI50 (OVCAR-4): > 100 µM (inactive)
GI50 (SR): > 76.4 µM (inactive)
GI50 (Malme-3M): 49.5 µM (inactive)
GI50 (SK-MEL-5): 14.4 µM (inactive)
GI50 (NCI-H226): > 50.4 µM (inactive)
GI50 (RXF 631): > 60.4 µM (inactive)
GI50 (UACC-62): 36.4 µM (inactive)
GI50 (HOP-92): 23.8 µM (inactive)
GI50 (SNB-19): 23.1 µM (inactive)
GI50 (DMS-273): 33.1 µM (inactive)
GI50 (M14): 43.8 µM (inactive)
GI50 (SNB-75): 29.2 µM (inactive)
GI50 (DMS-114): 16 µM (inactive)
GI50 (HCT-116): 32 µM (inactive)
GI50 (DLD-1): > 33.3 µM (inactive)
GI50 (RPMI-8226): > 100 µM (inactive)
GI50 (SK-OV-3): 19.4 µM (inactive)
GI50 (SK-MEL-2): > 60 µM (inactive)
GI50 (SF-295): 33.3 µM (inactive)
GI50 (LOX IMVI): 14.4 µM (inactive)
GI50 (KM-20L2): > 100 µM (inactive)
GI50 (EKVX): > 100 µM (inactive)
GI50 (SF-268): 39.7 µM (inactive)
GI50 (IGROV-1): 23.4 µM (inactive)
GI50 (CAKI-1): > 100 µM (inactive)
GI50 (CCRF-CEM): > 53.5 µM (inactive)
GI50 (K562): 58.7 µM (inactive)
GI50 (HL-60): 35.1 µM (inactive)
GI50 (M19-MEL): 9.73 µM (inactive)
GI50 (SNB-78): 26.1 µM (inactive)
GI50 (TK-10): 30.9 µM (inactive)
GI50 (NCI-H23): 12.2 µM (inactive)
GI50 (KM12): > 76.9 µM (inactive)
GI50 (786-0): 37.7 µM (inactive)
GI50 (U-251): 13.9 µM (inactive)
GI50 (OVCAR-5): > 100 µM (inactive)
